Experimental findings from ChEMBL document CHEMBL4673240, “Euphnerins A and B, Diterpenoids with a 5/6/6 Rearranged Spirocyclic Carbon Skeleton from the Stems of Euphorbia neriifolia” (J Nat Prod, 2020) are described below.

The nature of the assay: Inhibition of LPS-induced NO production in mouse BV-2 cells. Type of assay: functional, cell-based.
`CSC(=N)N` registered a 50% inhibitory concentration (IC50) of 2 µM.
The value for `C=C[C@@]1(C)CC[C@]2(C)C(=O)[C@@]3(CC[C@H]2C1)[C@H](O)CCC3(C)C` was more than 30 µM.
On to `C=C[C@@]1(C)CC[C@]2(C)C(=O)[C@@]3(CC[C@H]2C1)[C@H](O)C[C@@H](O)C3(C)C`, for which 22.4 µM corresponded to half-maximal inhibition (IC50).
